Data reported in PubChem BioAssay (NCI).
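48-hour exposure; five concentrations; linearly interpolated endpoints. Abbreviation: GI50, concentration required for 50% inhibition of growth. TGI: total growth inhibition.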

How the values were obtained:
Assay in all cases: NCI tumour cell line growth inhibition, 48 h
ACHN renal = system: ACHN renal
A549 NSCLC = system: A549 NSCLC
HL-60(TB) leukemia = system: HL-60(TB) leukemia
NCI/ADR-RES ovarian = system: NCI/ADR-RES ovarian
KM12 colon = system: KM12 colon
SF-268 CNS = system: SF-268 CNS
CAKI-1 renal = system: CAKI-1 renal
COLO 205 colon = system: COLO 205 colon
OVCAR-8 ovarian = system: OVCAR-8 ovarian
786-0 renal = system: 786-0 renal
HOP-62 NSCLC = system: HOP-62 NSCLC
CCRF-CEM leukemia = system: CCRF-CEM leukemia
TK-10 renal = system: TK-10 renal
MOLT-4 leukemia = system: MOLT-4 leukemia
HOP-92 NSCLC = system: HOP-92 NSCLC
NCI-H23 lung = system: NCI-H23 lung
SR leukemia = system: SR leukemia
MDA-MB-468 breast = system: MDA-MB-468 breast
PC-3 prostate = system: PC-3 prostate
SK-MEL-2 melanoma = system: SK-MEL-2 melanoma
SNB-19 CNS = system: SNB-19 CNS
U251 CNS = system: U251 CNS
EKVX NSCLC = system: EKVX NSCLC
T-47D breast = system: T-47D breast
IGROV1 ovarian = system: IGROV1 ovarian
SNB-75 CNS = system: SNB-75 CNS
SK-MEL-5 melanoma = system: SK-MEL-5 melanoma
UO-31 renal = system: UO-31 renal
K-562 leukemia = system: K-562 leukemia
UACC-257 melanoma = system: UACC-257 melanoma
BT-549 breast = system: BT-549 breast
MCF7 breast = system: MCF7 breast
MALME-3M melanoma = system: MALME-3M melanoma
HT29 colon = system: HT29 colon
DU-145 prostate = system: DU-145 prostate
MDA-MB-231 breast = system: MDA-MB-231 breast
SN12C renal = system: SN12C renal
HS 578T breast = system: HS 578T breast
OVCAR-5 ovarian = system: OVCAR-5 ovarian
SF-539 CNS = system: SF-539 CNS
RXF 393 renal = system: RXF 393 renal
UACC-62 melanoma = system: UACC-62 melanoma
A498 renal = system: A498 renal
OVCAR-4 ovarian = system: OVCAR-4 ovarian
SF-295 CNS = system: SF-295 CNS
NCI-H460 lung = system: NCI-H460 lung
SW-620 colon = system: SW-620 colon
SK-OV-3 ovarian = system: SK-OV-3 ovarian
HCT-116 colon = system: HCT-116 colon
OVCAR-3 ovarian = system: OVCAR-3 ovarian
RPMI-8226 leukemia = system: RPMI-8226 leukemia
M14 melanoma = system: M14 melanoma
HCT-15 colon = system: HCT-15 colon
LOX IMVI melanoma = system: LOX IMVI melanoma
MDA-MB-435 = system: MDA-MB-435
HCC-2998 colon = system: HCC-2998 colon
SK-MEL-28 melanoma = system: SK-MEL-28 melanoma
NCI-H226 lung = system: NCI-H226 lung
NCI-H522 lung = system: NCI-H522 lung

CN1CCN(Cc2ccc(NC(=O)c3cncc(C#Cc4cnc5ccc(N[C@H]6CCOC6)nn45)c3)cc2C(F)(F)F)CC1
GI50 (ACHN renal): 278 nM
TGI (ACHN renal): 980 nM
GI50 (A549 NSCLC): 175 nM
TGI (A549 NSCLC): 643 nM
GI50 (HL-60(TB) leukemia): 43.7 nM
TGI (HL-60(TB) leukemia): 704 nM
GI50 (NCI/ADR-RES ovarian): 5.82 µM
TGI (NCI/ADR-RES ovarian): 25.3 µM
GI50 (KM12 colon): 6.9 nM
TGI (KM12 colon): 526 nM
GI50 (SF-268 CNS): 180 nM
TGI (SF-268 CNS): 917 nM
GI50 (CAKI-1 renal): 148 nM
TGI (CAKI-1 renal): 511 nM
GI50 (COLO 205 colon): 88 nM
TGI (COLO 205 colon): 197 nM
GI50 (OVCAR-8 ovarian): 252 nM
TGI (OVCAR-8 ovarian): 1130 nM
GI50 (786-0 renal): 268 nM
TGI (786-0 renal): 959 nM
GI50 (HOP-62 NSCLC): 172 nM
TGI (HOP-62 NSCLC): 677 nM
GI50 (CCRF-CEM leukemia): 28.3 nM
TGI (CCRF-CEM leukemia): 687 nM
GI50 (TK-10 renal): 254 nM
TGI (TK-10 renal): 828 nM
GI50 (MOLT-4 leukemia): 46.8 nM
TGI (MOLT-4 leukemia): 866 nM
GI50 (HOP-92 NSCLC): 13.7 nM
TGI (HOP-92 NSCLC): 82.2 nM
GI50 (NCI-H23 lung): 81.4 nM
TGI (NCI-H23 lung): 249 nM
GI50 (SR leukemia): 95 nM
TGI (SR leukemia): 9.33 µM
GI50 (MDA-MB-468 breast): 90.3 nM
TGI (MDA-MB-468 breast): 211 nM
GI50 (PC-3 prostate): 185 nM
TGI (PC-3 prostate): 3.69 µM
GI50 (SK-MEL-2 melanoma): 152 nM
TGI (SK-MEL-2 melanoma): 350 nM
GI50 (SNB-19 CNS): 249 nM
TGI (SNB-19 CNS): 1120 nM
GI50 (U251 CNS): 219 nM
TGI (U251 CNS): 1020 nM
GI50 (EKVX NSCLC): 128 nM
TGI (EKVX NSCLC): 696 nM
GI50 (T-47D breast): 704 nM
TGI (T-47D breast): 5.15 µM
GI50 (IGROV1 ovarian): 136 nM
TGI (IGROV1 ovarian): 394 nM
GI50 (SNB-75 CNS): 144 nM
TGI (SNB-75 CNS): 330 nM
GI50 (SK-MEL-5 melanoma): 487 nM
TGI (SK-MEL-5 melanoma): 1390 nM
GI50 (UO-31 renal): 962 nM
TGI (UO-31 renal): 2290 nM
GI50 (K-562 leukemia): 6.9 nM
TGI (K-562 leukemia): 930 nM
GI50 (UACC-257 melanoma): 483 nM
TGI (UACC-257 melanoma): 1990 nM
GI50 (BT-549 breast): 291 nM
TGI (BT-549 breast): 915 nM
GI50 (MCF7 breast): 46.1 nM
TGI (MCF7 breast): 274 nM
GI50 (MALME-3M melanoma): 98.2 nM
TGI (MALME-3M melanoma): 323 nM
GI50 (HT29 colon): 90.3 nM
TGI (HT29 colon): 512 nM
GI50 (DU-145 prostate): 170 nM
TGI (DU-145 prostate): 716 nM
GI50 (MDA-MB-231 breast): 41.4 nM
TGI (MDA-MB-231 breast): 231 nM
GI50 (SN12C renal): 33.7 nM
TGI (SN12C renal): 398 nM
GI50 (HS 578T breast): 62.1 nM
TGI (HS 578T breast): 393 nM
GI50 (OVCAR-5 ovarian): 142 nM
TGI (OVCAR-5 ovarian): 536 nM
GI50 (SF-539 CNS): 21 nM
TGI (SF-539 CNS): 102 nM
GI50 (RXF 393 renal): 108 nM
TGI (RXF 393 renal): 274 nM
GI50 (UACC-62 melanoma): 151 nM
TGI (UACC-62 melanoma): 801 nM
GI50 (A498 renal): 278 nM
TGI (A498 renal): 490 nM
GI50 (OVCAR-4 ovarian): 260 nM
TGI (OVCAR-4 ovarian): 2130 nM
GI50 (SF-295 CNS): 291 nM
TGI (SF-295 CNS): 1260 nM
GI50 (NCI-H460 lung): 144 nM
TGI (NCI-H460 lung): 828 nM
GI50 (SW-620 colon): 72.3 nM
TGI (SW-620 colon): 367 nM
GI50 (SK-OV-3 ovarian): 446 nM
TGI (SK-OV-3 ovarian): 2010 nM
GI50 (HCT-116 colon): 37 nM
TGI (HCT-116 colon): 290 nM
GI50 (OVCAR-3 ovarian): 183 nM
TGI (OVCAR-3 ovarian): 1030 nM
GI50 (RPMI-8226 leukemia): 237 nM
TGI (RPMI-8226 leukemia): 1230 nM
GI50 (M14 melanoma): 103 nM
TGI (M14 melanoma): 315 nM
GI50 (HCT-15 colon): 321 nM
TGI (HCT-15 colon): 1290 nM
GI50 (LOX IMVI melanoma): 56.6 nM
TGI (LOX IMVI melanoma): 153 nM
GI50 (MDA-MB-435): 95.8 nM
TGI (MDA-MB-435): 813 nM
GI50 (HCC-2998 colon): 181 nM
TGI (HCC-2998 colon): 866 nM
GI50 (SK-MEL-28 melanoma): 235 nM
TGI (SK-MEL-28 melanoma): 996 nM
GI50 (NCI-H226 lung): 14.7 nM
TGI (NCI-H226 lung): 218 nM
GI50 (NCI-H522 lung): 103 nM
TGI (NCI-H522 lung): 249 nM
